Test system: patients with metastatic, chemo-naive, hormone-refractory prostate cancer (HRPC)
Test: Phase I safety analysis: adverse events graded by CTCAE version 3.0
Format: in vivo, human
Conditions: all courses
Experimental: On days 2–21 (21-day cycle), patients took an oral dose of BIBF 1120 twice daily. Patients were instructed to swallow BIBF 1120 with water at the same time every day to ensure a dose interval of ∼12 h. On day 2 of treatment cycles (TCs) 1 and 2, patients only took the morning dose of BIBF 1120, omitting the evening dose to allow PK evaluation. All patients were premedicated with oral corticosteroids (dexamethasone 8 mg per os or methylprednisolone 32 mg per os, at 12 h and 1 h before docetaxel infusion) and subsequently took 5 mg prednisone oral BID throughout the trial. On day 1 of each TC, patients received an IV infusion of 75 mg m^−2 docetaxel administered over 1 h.
All patients who received at least one dose of BIBF 1120 or docetaxel were assessed during the safety analysis. Intensity of AEs was graded according to Common Terminology Criteria for Adverse Events (CTCAE) version 3.0. Objective response was defined as a PSA decline ⩾50% from the baseline value over two consecutive courses and/or tumour response according to RECIST criteria ([Therasse et al, 2000]).

[1] = 100 mg BID (n=3) + docetaxel/prednisone, Gr 3/4
[2] = 100 mg BID (n=3) + docetaxel/prednisone, all grades
[3] = 150 mg BID (n=3) + docetaxel/prednisone, Gr 3/4
[4] = 150 mg BID (n=3) + docetaxel/prednisone, all grades
[5] = 200 mg BID (n=3) + docetaxel/prednisone, Gr 3/4
[6] = 200 mg BID (n=3) + docetaxel/prednisone, all grades

COC(=O)c1ccc2c(c1)NC(=O)/C2=C(\Nc1ccc(N(C)C(=O)CN2CCN(C)CC2)cc1)c1ccccc1 [BIBF 1120]
Ageusia: patients with drug-related AE [1]: 0 | Alopecia: patients with drug-related AE [1]: 0 | Anorexia: patients with drug-related AE [1]: 0 | Asthenia: patients with drug-related AE [1]: 0 | Constipation: patients with drug-related AE [1]: 0 | Diarrhoea: patients with drug-related AE [1]: 0 | Dysgeusia: patients with drug-related AE [1]: 0 | Dyspepsia: patients with drug-related AE [1]: 0 | Dysphonia: patients with drug-related AE [1]: 0 | Elevated ALT: patients with drug-related AE [1]: 0 | Elevated AST: patients with drug-related AE [1]: 0 | Elevated GGT: patients with drug-related AE [1]: 0 | Elevated alkaline phosphatase: patients with drug-related AE [1]: 0 | Epistasis: patients with drug-related AE [1]: 0 | Headache: patients with drug-related AE [1]: 0 | Hot flush: patients with drug-related AE [1]: 0 | Mucosal inflammation: patients with drug-related AE [1]: 0 | Muscle spasm: patients with drug-related AE [1]: 0 | Nausea: patients with drug-related AE [1]: 0 | Neuropathy: patients with drug-related AE [1]: 0 | Pyrexia: patients with drug-related AE [1]: 0 | Rash: patients with drug-related AE [1]: 0 | Upper abdominal pain: patients with drug-related AE [1]: 0 | Vomiting: patients with drug-related AE [1]: 0 | Weight decrease: patients with drug-related AE [1]: 0 | Ageusia: patients with drug-related AE [2]: 0 | Alopecia: patients with drug-related AE [2]: 0 | Anorexia: patients with drug-related AE [2]: 0 | Asthenia: patients with drug-related AE [2]: 0 | Constipation: patients with drug-related AE [2]: 0 | Diarrhoea: patients with drug-related AE [2]: 0 | Dysgeusia: patients with drug-related AE [2]: 0 | Dyspepsia: patients with drug-related AE [2]: 0 | Dysphonia: patients with drug-related AE [2]: 0 | Elevated ALT: patients with drug-related AE [2]: 0 | Elevated AST: patients with drug-related AE [2]: 0 | Elevated GGT: patients with drug-related AE [2]: 0 | Elevated alkaline phosphatase: patients with drug-related AE [2]: 0 | Epistasis: patients with drug-related AE [2]: 0 | Headache: patients with drug-related AE [2]: 0 | Hot flush: patients with drug-related AE [2]: 0 | Mucosal inflammation: patients with drug-related AE [2]: 0 | Muscle spasm: patients with drug-related AE [2]: 0 | Nausea: patients with drug-related AE [2]: 0 | Neuropathy: patients with drug-related AE [2]: 0 | Pyrexia: patients with drug-related AE [2]: 0 | Rash: patients with drug-related AE [2]: 0 | Upper abdominal pain: patients with drug-related AE [2]: 0 | Vomiting: patients with drug-related AE [2]: 0 | Weight decrease: patients with drug-related AE [2]: 0 | Ageusia: patients with drug-related AE [3]: 0 | Alopecia: patients with drug-related AE [3]: 0 | Anorexia: patients with drug-related AE [3]: 0 | Asthenia: patients with drug-related AE [3]: 0 | Constipation: patients with drug-related AE [3]: 0 | Diarrhoea: patients with drug-related AE [3]: 0 | Dysgeusia: patients with drug-related AE [3]: 0 | Dyspepsia: patients with drug-related AE [3]: 0 | Dysphonia: patients with drug-related AE [3]: 0 | Elevated ALT: patients with drug-related AE [3]: 0 | Elevated AST: patients with drug-related AE [3]: 0 | Elevated GGT: patients with drug-related AE [3]: 0 | Elevated alkaline phosphatase: patients with drug-related AE [3]: 0 | Epistasis: patients with drug-related AE [3]: 0 | Headache: patients with drug-related AE [3]: 0 | Hot flush: patients with drug-related AE [3]: 0 | Mucosal inflammation: patients with drug-related AE [3]: 0 | Muscle spasm: patients with drug-related AE [3]: 0 | Nausea: patients with drug-related AE [3]: 0 | Neuropathy: patients with drug-related AE [3]: 0 | Pyrexia: patients with drug-related AE [3]: 0 | Rash: patients with drug-related AE [3]: 0 | Upper abdominal pain: patients with drug-related AE [3]: 0 | Vomiting: patients with drug-related AE [3]: 0 | Weight decrease: patients with drug-related AE [3]: 0 | Ageusia: patients with drug-related AE [4]: 1 | Alopecia: patients with drug-related AE [4]: 0 | Anorexia: patients with drug-related AE [4]: 3 | Asthenia: patients with drug-related AE [4]: 3 | Constipation: patients with drug-related AE [4]: 1 | Diarrhoea: patients with drug-related AE [4]: 3 | Dysgeusia: patients with drug-related AE [4]: 1 | Dyspepsia: patients with drug-related AE [4]: 1 | Dysphonia: patients with drug-related AE [4]: 1 | Elevated ALT: patients with drug-related AE [4]: 0 | Elevated AST: patients with drug-related AE [4]: 0 | Elevated GGT: patients with drug-related AE [4]: 0 | Elevated alkaline phosphatase: patients with drug-related AE [4]: 0 | Epistasis: patients with drug-related AE [4]: 1 | Headache: patients with drug-related AE [4]: 2 | Hot flush: patients with drug-related AE [4]: 0 | Mucosal inflammation: patients with drug-related AE [4]: 0 | Muscle spasm: patients with drug-related AE [4]: 0 | Nausea: patients with drug-related AE [4]: 2 | Neuropathy: patients with drug-related AE [4]: 1 | Pyrexia: patients with drug-related AE [4]: 1 | Rash: patients with drug-related AE [4]: 0 | Upper abdominal pain: patients with drug-related AE [4]: 1 | Vomiting: patients with drug-related AE [4]: 0 | Weight decrease: patients with drug-related AE [4]: 1 | Ageusia: patients with drug-related AE [5]: 0 | Alopecia: patients with drug-related AE [5]: 0 | Anorexia: patients with drug-related AE [5]: 0 | Asthenia: patients with drug-related AE [5]: 0 | Constipation: patients with drug-related AE [5]: 0 | Diarrhoea: patients with drug-related AE [5]: 2 | Dysgeusia: patients with drug-related AE [5]: 0 | Dyspepsia: patients with drug-related AE [5]: 0 | Dysphonia: patients with drug-related AE [5]: 0 | Elevated ALT: patients with drug-related AE [5]: 0 | Elevated AST: patients with drug-related AE [5]: 0 | Elevated GGT: patients with drug-related AE [5]: 0 | Elevated alkaline phosphatase: patients with drug-related AE [5]: 0 | Epistasis: patients with drug-related AE [5]: 0 | Headache: patients with drug-related AE [5]: 0 | Hot flush: patients with drug-related AE [5]: 0 | Mucosal inflammation: patients with drug-related AE [5]: 0 | Muscle spasm: patients with drug-related AE [5]: 0 | Nausea: patients with drug-related AE [5]: 0 | Neuropathy: patients with drug-related AE [5]: 0 | Pyrexia: patients with drug-related AE [5]: 0 | Rash: patients with drug-related AE [5]: 0 | Upper abdominal pain: patients with drug-related AE [5]: 0 | Vomiting: patients with drug-related AE [5]: 0 | Weight decrease: patients with drug-related AE [5]: 0 | Ageusia: patients with drug-related AE [6]: 0 | Alopecia: patients with drug-related AE [6]: 0 | Anorexia: patients with drug-related AE [6]: 0 | Asthenia: patients with drug-related AE [6]: 1 | Constipation: patients with drug-related AE [6]: 0 | Diarrhoea: patients with drug-related AE [6]: 2 | Dysgeusia: patients with drug-related AE [6]: 0

— paper PMC3242598, “Phase I study of BIBF 1120 with docetaxel and prednisone in metastatic chemo-naive hormone-refractory prostate cancer patients” (British Journal of Cancer, 2011)
